Our source for the EC50 values is BindingDB's records for doi:10.7270/Q2X34VWJ (Nmmlsc, 2009).

One may read the EC50 as the midpoint of the concentration-response curve. The low end stands for greater potency, the high end for weaker potency.

Chain of Ras-related protein Rab-7a (P18067 whole entry): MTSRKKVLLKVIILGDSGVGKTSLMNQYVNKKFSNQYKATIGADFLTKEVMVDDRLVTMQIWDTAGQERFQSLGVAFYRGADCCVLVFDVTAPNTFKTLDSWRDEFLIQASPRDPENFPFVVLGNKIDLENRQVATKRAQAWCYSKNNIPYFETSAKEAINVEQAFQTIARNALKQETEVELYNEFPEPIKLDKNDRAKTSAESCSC

The first assay has as its target Ras-related protein Rab-7a (Canis lupus familiaris, UniProt P18067). The experiment in a line: extra analogs blocking nucleotide binding to Rab7 – biochemical, additional analogs, wildtype, multiplex bead flow cytometry, SAR follow-up (AID 2036).
Details: not given
On the technique in general: A flow cytometer gives signals particle by particle.
Turning to `O=C1NC(=O)/C(=C2/C(=O)Nc3ccccc32)N1`, a half-maximal effect (EC50) was put at 30 µM.

Turning to `O=C1N=c2c(Br)cccc2=C1c1[nH]c2ccccc2c1NO` [7-bromanyl-3-[3-(oxidanylamino)-1H-indol-2-yl]indol-2-one], the midpoint of the response, the EC50, lay at 30 µM.

For `C[C@@H](C(=O)O)c1cccc(Oc2ccccc2)c1` [calcium;2-(3-phenoxyphenyl)propanoic acid;hydrate], a half-maximal effect (EC50) was put at 30 µM.

`O=C1N=c2c(Cl)cccc2=C1c1[nH]c2ccccc2c1NO` [7-chloro-3-[3-(hydroxyamino)-1H-indol-2-yl]-2-indolone] had an EC50 of 30 µM.

On to `O=C1NC(=S)N/C1=C1\C(=O)Nc2ccccc21` [(3Z)-3-(5-oxo-2-sulfanylideneimidazolidin-4-ylidene)-1H-indol-2-one], for which the response was half-maximal at 13.4 µM (EC50).

`O=C1Nc2c(F)cccc2C1=C1Nc2ccccc2C1=O`: the half-maximal effective concentration (EC50) came to 23.8 µM.

Molecule `O=C1N=c2c(F)cccc2=C1c1[nH]c2ccccc2c1NO` [7-fluoro-3-[3-(hydroxyamino)-1H-indol-2-yl]-2-indolone] returned an EC50 of 30 µM.

`O=C1N=c2ccccc2=C1c1[nH]c2ccccc2c1NO` [3-[3-(hydroxyamino)-1H-indol-2-yl]-2-indolone] gave an EC50 of 30 µM.

Molecule `O=C1Nc2ccccc2/C1=C1/Nc2ccccc2C1=O` [2-[(3Z)-2-oxo-2,3-dihydro-1H-indol-3-ylidene]-2,3-dihydro-1H-indol-3-one] showed an EC50 of 30 µM.

In the case of `O=C1Nc2c(Cl)cccc2C1=C1Nc2ccccc2C1=O`, a half-maximal response (EC50) required 0.024 µM.

For `O=C1Nc2ccc(Br)cc2C1=C1Nc2ccccc2C1=O`, the EC50 worked out at 30 µM.

In the case of `O=C1Nc2c(Br)cccc2C1=C1Nc2ccccc2C1=O`, the EC50 was determined as 30 µM.

In turn, `O=C1N=c2ccc(Br)cc2=C1c1[nH]c2ccccc2c1NO` [5-bromanyl-3-[3-(oxidanylamino)-1H-indol-2-yl]indol-2-one] displayed a concentration for a half-maximal effect (EC50) of 30 µM.

Still in this assay, the particulars now being: inactive by the depositor's call.
The molecule `COc1ccc(-c2c(C#N)c(N)n(S(C)(=O)=O)c2C(=O)c2ccccc2)cc1Br` [2-azanyl-4-(3-bromanyl-4-methoxy-phenyl)-1-methylsulfonyl-5-(phenylcarbonyl)pyrrole-3-carbonitrile] showed an EC50 of 30 µM.

As for `O=[N+]([O-])c1ccc(C#Cc2ccccc2)cc1`, the EC50 turned out to be 30 µM.

On to `CC(C(=O)O)c1cccc(C(=O)c2ccccc2)c1` (stereo not given) [2-(3-benzoylphenyl)propanoic acid], for which the EC50 came out at 30 µM.

`O=C(C#Cc1ccccc1)c1ccccc1[N+](=O)[O-]` [UNM-0000306038] showed an EC50 of 30 µM.

Molecule `N#Cc1ccc(C(=O)C#Cc2ccccc2)cc1` [4-(3-phenylprop-2-ynoyl)benzenecarbonitrile] had an EC50 of 30 µM.

Molecule `CC(C)Cc1ccc([C@H](C)C(=O)O)cc1` [(S)-2-(4-Isobutyl-phenyl)-propionic acid] showed an EC50 of 4.78 µM.

The molecule `CC1=C(CC(=O)O)c2cc(F)ccc2/C1=C/c1ccc([S+](C)[O-])cc1` (stereo not given) [UNM-0000306136] yielded an EC50 of 30 µM.

As to `O=C(C#Cc1ccccc1)c1ccc(F)cc1` [UNM-0000306059], the EC50 was 30 µM.

The molecule `CC(=O)Oc1ccccc1C(=O)O` [2-(acetyloxy)benzoic acid] returned a half-maximal effective concentration (EC50) of 30 µM.

Turning to `O=C(C#Cc1ccccc1)c1ccc([N+](=O)[O-])cc1` [1-(4-nitrophenyl)-3-phenyl-2-propyn-1-one], a half-maximal response (EC50) required 30 µM.

With `CCCCS(=O)(=O)n1c(N)c(C#N)c(-c2cc(OC)c(OC)c(OC)c2)c1C(=O)c1ccccc1` [2-amino-5-benzoyl-1-butylsulfonyl-4-(3,4,5-trimethoxyphenyl)-3-pyrrolecarbonitrile], the EC50 is 30 µM.

The molecule `COc1ccc(S(=O)(=O)n2c(N)c(C#N)c(-c3cncc(Br)c3)c2C(=O)c2ccccc2)cc1` [2-amino-5-benzoyl-4-(5-bromo-3-pyridinyl)-1-(4-methoxyphenyl)sulfonyl-3-pyrrolecarbonitrile] yielded an EC50 of 8.24 µM.

The molecule `O=C1Nc2cccc(Br)c2/C1=C1/Cc2ccccc2C1=O` yielded an EC50 of 30 µM.

The molecule `COC(=O)c1ccc(C(=O)C#Cc2ccccc2)cc1` [4-(1-oxo-3-phenylprop-2-ynyl)benzoic acid methyl ester] came in with an EC50 of 30 µM.

With `O=C1Nc2ccccc2/C1=C1/Cc2ccccc2C1=O` [UNM-0000305763], the EC50 is 30 µM.

`O=C(C#Cc1ccccc1)c1ccc(Cl)cc1` [UNM-0000306055] yielded an EC50 of 30 µM.

`O=C(C#Cc1ccccc1)c1ccccc1` [UNM-0000306039] came in with an EC50 of 30 µM.

For `O=C(C#Cc1ccccc1)c1cccnc1` [3-phenyl-1-pyridin-3-ylprop-2-yn-1-one], the EC50 is 30 µM.

Consider `O=C1Nc2c(Br)cccc2/C1=C1/Cc2ccccc2C1=O` [(3E)-7-bromo-3-(3-oxo-1H-inden-2-ylidene)-1H-indol-2-one], for which the EC50 came out at 30 µM.

With `COc1ccc(S(=O)(=O)n2c(N)c(C#N)c(-c3cc(Br)c(OC)c(OC)c3)c2C(=O)c2ccccc2)cc1` [UNM-0000305782], it took 30 µM to reach a half-maximal effect (EC50).

In turn, `CSc1ccc(/C=C2/C(C)=C(CC(=O)O)c3cc(F)ccc32)cc1` [{6-Fluoro-2-methyl-3-[1-(4-methylsulfanyl-phenyl)-meth-(E)-ylidene]-3H-inden-1-yl}-acetic acid] returned an EC50 of 41.2 µM.

Molecule `COc1ccc(S(=O)(=O)n2c(N)c(C#N)c(-c3ccccc3)c2C(=O)c2ccc(Br)cc2)cc1` yielded a 50% effective concentration (EC50) of 30 µM.

In turn, `N#Cc1c(-c2ccc(Cl)cc2)c(C(=O)c2ccccc2)n(S(=O)(=O)c2ccc([N+](=O)[O-])cc2)c1N` [UNM-0000305780] gave an EC50 of 30 µM.

Regarding `COc1cc(-c2c(C#N)c(N)n(S(=O)(=O)c3c(C(C)C)cc(C(C)C)cc3C(C)C)c2C(=O)c2ccccc2)cc(OC)c1OC` [2-azanyl-5-(phenylcarbonyl)-4-(3,4,5-trimethoxyphenyl)-1-[2,4,6-tri(propan-2-yl)phenyl]sulfonyl-pyrrole-3-carbonitrile], the midpoint of the response, the EC50, lay at 33.2 µM.

Molecule `O=C(C#Cc1ccccc1)c1ccc(OC(F)(F)F)cc1` registered a concentration for a half-maximal effect (EC50) of 30 µM.

Molecule `COc1ccc(C(=O)C#Cc2ccccc2)cc1` [1-(4-methoxyphenyl)-3-phenyl-2-propyn-1-one] registered an EC50 of 30 µM.

`COc1ccc2cc(CC(=O)O)ccc2c1` [2-(6-methoxynaphthalen-2-yl)ethanoic acid] had an EC50 of 30 µM.
